Here are results for 2 compounds from paper PMC13107563 (Protein & Cell, 2025).

As usually defined, the Emax is the greatest response seen or fitted, relative to the assay's reference. By EC50 is commonly meant the concentration giving half of the maximal effect.

One assay concerns the target T1, NPFFR2 (WT) (Homo sapiens, UniProt Q9Y5X5).
T1 construct: expressed in transfected cells; host or cells: HEK293T (described for NPFFR1 only)
Kind of assay: GloSensor cAMP accumulation assay, WT NPFFR2 (Gi signaling). The format is cell-based. The settings on record: WT NPFFR2 (reference, 100 %WT), three independent experiments in triplicates. A general note: Changes in cAMP serve as a functional read-out for many G protein-coupled receptors.

A further assay deals with T2, NPFFR2 T220A (Homo sapiens, UniProt Q9Y5X5, T322A).
T2 construct: expressed in transfected cells; host or cells: HEK293T (described for NPFFR1 only)
Kind of assay: GloSensor cAMP accumulation assay, NPFFR2 T220A. The format is cell-based. The settings on record: Gi signaling, three independent experiments in triplicates.

Another assay relates to NPFFR1 / NPFFR2. Conditions: NPFFR1 vs NPFFR2; ref Quillet et al., 2016; cited from earlier work. An excerpt:
NPFFR1 primarily couples to inhibitory Gi/o proteins and regulates di ...

No end group written: not given here.

T1 sequence (Q9Y5X5 103-522): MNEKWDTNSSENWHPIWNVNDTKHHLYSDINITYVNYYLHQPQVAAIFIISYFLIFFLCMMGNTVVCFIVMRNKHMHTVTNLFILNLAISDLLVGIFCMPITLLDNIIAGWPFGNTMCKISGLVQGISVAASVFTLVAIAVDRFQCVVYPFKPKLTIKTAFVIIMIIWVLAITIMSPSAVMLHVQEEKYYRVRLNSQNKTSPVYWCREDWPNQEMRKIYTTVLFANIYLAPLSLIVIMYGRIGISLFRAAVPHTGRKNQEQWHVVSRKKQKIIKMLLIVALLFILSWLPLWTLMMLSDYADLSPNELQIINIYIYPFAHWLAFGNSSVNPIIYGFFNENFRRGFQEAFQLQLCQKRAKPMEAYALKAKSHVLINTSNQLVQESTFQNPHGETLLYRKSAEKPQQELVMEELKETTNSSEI
T2 sequence (Q9Y5X5 103-522 T322A): as the sequence (Q9Y5X5 103-522) above, with T220A counted along it

As for `CC(C)C[C@H](NC(=O)[C@H](CC(N)=O)NC(=O)[C@@H]1CCCN1C(=O)[C@@H](N)C(C)C)C(=O)N1CCC[C@H]1C(=O)N[C@@H](CCC(N)=O)C(=O)N[C@@H](CCCNC(=N)N)C(=O)N[C@@H](Cc1ccccc1)C(N)=O` [RFRP-3, RF-amide related peptide-3], the Emax on NPFFR2 (WT) came to 100%. Moreover, the EC50 at NPFFR2 T220A was above 30.2 µM.

Take “Neuropeptide AF (AGEGLNSQFWSLAAPQRF; ends and bridges not checked; UniProt O15130 93-110, looked up) [NPAF, peptide derived from pro-NPFFA]”: the receptor preference entry in the assay with NPFFR1 / NPFFR2 is on record as “prefer binding to NPFFR2”.
